The text below walks through data of patent US5399565A, “Pyrazolidinone CCK and gastrin antagonists and pharmaceutical formulations therof” (priority 1993, dated 1995).

The target of test [1] is T1, gastrin receptor (Cavia porcellus, UniProt H0VZC5).
T1 construct: Guinea pig stomach fundus was obtained from male Hartley guinea pigs; from tissue; host or cells: stomach fundus mucosal membranes of male Hartley guinea pigs
T1 sequence (H0VZC5 1-426): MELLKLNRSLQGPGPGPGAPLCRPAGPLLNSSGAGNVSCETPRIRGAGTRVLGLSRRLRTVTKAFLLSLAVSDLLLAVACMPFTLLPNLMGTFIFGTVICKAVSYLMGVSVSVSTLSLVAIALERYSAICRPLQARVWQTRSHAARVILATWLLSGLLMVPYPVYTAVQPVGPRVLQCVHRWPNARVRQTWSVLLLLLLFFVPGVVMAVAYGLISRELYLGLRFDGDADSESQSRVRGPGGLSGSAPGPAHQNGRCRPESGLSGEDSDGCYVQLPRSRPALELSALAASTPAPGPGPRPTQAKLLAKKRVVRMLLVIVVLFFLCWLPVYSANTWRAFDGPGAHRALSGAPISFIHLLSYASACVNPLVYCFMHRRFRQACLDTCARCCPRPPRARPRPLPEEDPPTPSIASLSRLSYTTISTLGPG
Put plainly: Gastrin binding to guinea pig stomach mucosal membranes (125I-gastrin I). On the procedure:
The method used for gastrin binding to guinea pig stomach mucosal membranes was similar to that described by Takeuchi, Speir and Johnson (Am. J. Physiol. 237(3): E284-E294, 1979). Guinea pig stomach fundus was obtained from male Hartley guinea pigs, 300-350 g, and the mucosa was scraped off with a glass slide. The mucosa was homogenized in 50 mM Tris buffer, pH 7.4, containing 1 mM phenylmethanesulfonyl fluoride using a Dounce glass homogenizer, and the suspension was centrifuged at 40,000 g for 10 min. The resulting pellet was resuspended and centrifuged once more, the final pellet was then suspended in 100 ml assay buffer per 1 guinea pig stomach to give a protein concentration of 200-300 μg/200 μl. The assay buffer consisted of 50 mM Tris buffer, pH 7.4, 5 mM MgCl2, 0.14 mg/ml bacitracin, and 1 μg/ml each of leupeptin, chymostatin, aprotinin and pepstatin. Reagent volumes for the assay were the same as those used for CCK binding to brain membranes. The radioactive ligand was 20 pM ^125 I-gastrin I, from DuPont NEN (NEX-176). The samples were incubated 3 hours at room temperature and filtered and counted as described for CCK binding to brain membranes. Compound samples were prepared and IC-50 values were determined as described for the CCK-brain receptor binding. Non-specific binding was determined using 100 nM gastrin I (human synthetic from Sigma Chemical Co.).

Test [2] addresses T2, peripheral type CCK receptors in rat pancreas (Rattus norvegicus, UniProt P30551).
T2 construct: Pancreas was obtained from male Sprague-Dawley rats; from tissue; host or cells: pancreas membranes of male Sprague-Dawley rats
T2 sequence (P30551 1-444): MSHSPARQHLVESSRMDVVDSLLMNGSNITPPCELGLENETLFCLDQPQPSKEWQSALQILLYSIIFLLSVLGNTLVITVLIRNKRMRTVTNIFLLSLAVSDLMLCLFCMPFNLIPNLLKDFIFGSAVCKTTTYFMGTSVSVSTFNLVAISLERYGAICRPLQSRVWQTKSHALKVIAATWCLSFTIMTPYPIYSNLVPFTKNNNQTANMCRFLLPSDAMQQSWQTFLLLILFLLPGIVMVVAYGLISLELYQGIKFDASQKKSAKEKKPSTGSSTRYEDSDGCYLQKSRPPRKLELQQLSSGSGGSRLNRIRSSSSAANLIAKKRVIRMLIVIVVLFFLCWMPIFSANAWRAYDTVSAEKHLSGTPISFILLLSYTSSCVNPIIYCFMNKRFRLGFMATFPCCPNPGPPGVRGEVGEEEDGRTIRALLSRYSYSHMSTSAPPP
Briefly: Binding to peripheral type CCK receptors in rat pancreas (3H-L-364,718). Particulars: for pIC50: rat pancreas; for inhibition at 10 µM: read-out: Pancreas Percent Inhibition. The method in brief: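 Washed pancreatic membranes from male Sprague-Dawley rats (150-200 g) incubated 1 h at room temperature with 0.4-0.6 nM ³H-L-364,718 in 50 mM Tris pH 7.4, 5 mM MgCl2, bacitracin, 5 mM DTT. Bound radioactivity counted after filtration; nonspecific binding defined with 100 nM L-364,718; IC50 determined.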

In test [3] the target is T3, brain CCK receptor (Mus musculus, UniProt P56481).
T3 construct: from tissue; host or cells: forebrain membranes of male CF-1 mice
T3 sequence (P56481 1-453): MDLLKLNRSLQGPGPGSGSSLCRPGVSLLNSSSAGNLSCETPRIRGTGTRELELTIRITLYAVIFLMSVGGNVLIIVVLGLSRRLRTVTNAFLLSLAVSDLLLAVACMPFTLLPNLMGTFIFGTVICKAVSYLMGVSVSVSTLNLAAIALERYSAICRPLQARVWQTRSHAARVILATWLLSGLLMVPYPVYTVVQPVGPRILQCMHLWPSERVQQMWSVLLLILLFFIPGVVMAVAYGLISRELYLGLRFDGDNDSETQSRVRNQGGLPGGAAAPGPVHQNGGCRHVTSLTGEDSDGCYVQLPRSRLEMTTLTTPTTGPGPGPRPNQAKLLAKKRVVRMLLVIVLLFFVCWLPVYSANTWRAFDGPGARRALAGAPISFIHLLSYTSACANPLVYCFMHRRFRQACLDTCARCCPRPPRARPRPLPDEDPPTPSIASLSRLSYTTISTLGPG
Briefly: CCK receptor binding, mouse brain membranes (125I-CCK-8 sulfate). The note with it: for inhibition at 1 µM / inhibition at 10 µM: read-out: Brain Percent Inhibition.

[4] abbreviates: guinea pig stomach mucosal membranes, read-out: Gastrin IC50.
[5] abbreviates: mouse brain membranes, read-out: Brain IC50.

pIC50: −log10 of the molar value. Where two headings read alike, the source gives them in different places.

Broadly, the pIC50 is the IC50 on a negative log10 scale, so that one unit is a factor of ten. As usually defined, the inhibition is the relative decrease from the control value, in per cent.

Take `O=C1NN(C(=O)Nc2ccc(Br)cc2)C(c2ccccc2)C1c1ccccc1Cl` (stereo not drawn) [Example 122]: the figures for the negative-log IC50 (pIC50) in test [1] (setting [4]), in test [2] and in test [3] (setting [5]) were 6.66, 5.07 and 7.82, respectively.
Regarding `NC(=O)c1cccc(C2C(c3ccccc3)C(=O)NN2C(=O)Nc2ccc(Br)cc2)c1` (stereo not drawn) [Example 118], the pIC50 in test [1] (setting [4]) is 5.28; in test [3] (setting [5]) it was 6.44. Moreover, in test [2], the inhibition at 10 µM came out at 41%.
For `CC(C)c1ccc(NC(=O)N2NC(=O)[C@@H](c3ccccc3)[C@@H]2c2ccccc2)cc1` (relative stereo) [Example 29] the same measures were 6.59, 7.60 and 47%.
`O=C1NN(C(=O)Nc2ccc(Br)cc2)[C@@H](c2cccc(Cl)c2Cl)[C@@H]1c1ccccc1` (relative stereo) [Example 116]: the negative-log IC50 (pIC50) in test [1] (setting [4]) is 6.64; in test [3] (setting [5]) it was 7.51. Further, the inhibition at 10 µM in test [2] is 80%.
Turning to `O=C1NN(C(=O)Nc2ccc(Br)cc2)[C@@H](c2cccc(Cl)c2Cl)[C@H]1c1ccccc1` (relative stereo) [Example 117], the pIC50 in test [1] (setting [4]) is 6.00; in test [3] (setting [5]) it was 6.40. The inhibition at 10 µM in test [2] worked out at 64%.
As to `O=C1NN(C(=O)Nc2ccc(Cl)c(C(F)(F)F)c2)C(c2ccccc2Cl)C1c1ccccc1` (stereo not drawn) [Example 120], the pIC50 in test [1] (setting [4]) is 6.92; in test [3] (setting [5]), 7.80. Moreover, in test [2], the inhibition at 10 µM was determined as 87%.
With `O=C1NN(C(=O)Nc2ccc(Cl)c(C(F)(F)F)c2)C(c2ccccc2)C1c1ccccc1Cl` (stereo not drawn) [Example 131], the values for the negative logarithm of the IC50 (pIC50) in test [1] (setting [4]) and in test [3] (setting [5]) were 7.21 and 7.92, respectively. The inhibition at 10 µM in test [2] turned out to be 61%.
For `N#Cc1cccc(C2C(c3ccccc3)C(=O)NN2C(=O)Nc2ccc(C(F)(F)F)cc2)c1` (stereo not drawn) [Example 111], the negative logarithm of the IC50 (pIC50) in test [1] is 6.21; in test [3] (Brain IC50, mouse brain membranes) it was 7.70. Besides, the inhibition at 10 µM in test [2] was found to be 35%.
With `COc1ccccc1C1C(c2ccccc2)C(=O)NN1C(=O)Nc1ccc(Br)cc1` (stereo not drawn) [Example 115], the pIC50 in test [1] (setting [4]) was 6.49; in test [3] (setting [5]), 6.82. Besides, the inhibition at 10 µM in test [2] was determined as 53%.
For `O=C1NN(C(=O)Nc2ccc(Br)cc2)C(c2ccccc2)C1c1cccc2ccccc12` (stereo not drawn) [Example 134], the negative logarithm of the IC50 (pIC50) is 7.03 in test [1] (setting [4]) and 7.48 in test [3] (setting [5]). The inhibition at 10 µM in test [2] stood at 75%.
On to `COc1cccc(C2C(c3ccccc3)C(=O)NN2C(=O)Nc2ccc(C(F)(F)F)cc2)c1` (stereo not drawn) [Example 112], for which the values for the pIC50 in test [1] (setting [4]) and in test [3] (setting [5]) were 5.85 and 7.14, respectively. Also, the inhibition at 10 µM in test [2] came to 42%.
Take `CC(C)(C)c1ccc(NC(=O)N2NC(=O)[C@@H](c3ccccc3)[C@@H]2c2ccccc2)cc1` (relative stereo) [Example 30]: the pIC50 in test [1] (setting [4]) was 6.46; in test [3] (setting [5]) it was 7.51. Besides, the inhibition at 10 µM in test [2] amounted to 49%.
For `O=C1NN(C(=O)NCCc2ccccc2Cl)[C@@H](c2ccccc2)[C@@H]1c1ccccc1` (relative stereo) [Example 106], the pIC50 in test [1] (setting [4]) was 6.06; in test [3] (setting [5]), 6.72. The inhibition at 10 µM in test [2] was found to be 78%.
In the case of `O=C1NN(C(=O)Nc2cnc3ccccc3c2)[C@@H](c2ccccc2)[C@@H]1c1ccccc1` (relative stereo) [Example 92], the pIC50 in test [1] (setting [4]) was 6.80; in test [3] (setting [5]), 7.19. Also, the inhibition at 10 µM in test [2] was determined as 88%.
As for `O=C1NN(C(=O)Nc2ccc3c(c2)CCC3)[C@H](c2ccccc2)[C@H]1c1ccccc1` (relative stereo) [Example 49], the pIC50 is 6.60 in test [1] (setting [4]) and 7.37 in test [3] (setting [5]). The inhibition at 10 µM in test [2] was determined as 40%.
For `CC(C)Oc1cccc(C2C(=O)NN(C(=O)Nc3ccc(Br)cc3)C2c2ccccc2)c1` (stereo not drawn) [Example 124] the same measures were 6.14, 6.82 and 36%.
On to `O=C1NN(C(=O)Nc2ccc3c(c2)OCO3)[C@H](c2ccccc2)[C@H]1c1ccccc1` (relative stereo) [Example 52], for which the inhibition at 10 µM in test [2] turned out to be 21%. The inhibition at 1 µM in test [3] was 60%.
`O=C1NN(C(=O)c2ccc(C(F)(F)F)cc2)[C@H](c2ccccc2)[C@H]1c1ccccc1` (relative stereo) [Example 74]: the values for the inhibition at 10 µM in test [2] and in test [3] were 15% and 23%, respectively.
For `O=C1NN(C(=O)NCc2ccc(Cl)cc2)[C@@H](c2ccccc2)[C@@H]1c1ccccc1` (relative stereo) [Example 100], the inhibition at 10 µM in test [2] is 78%. For the same molecule, the negative-log IC50 (pIC50) in test [3] (setting [5]) was 5.66.
Turning to `O=C1NN(C(=O)Nc2cccc(OCc3ccccc3)c2)[C@H](c2ccccc2)[C@H]1c1ccccc1` (relative stereo) [Example 44], the inhibition at 10 µM in test [2] was 67%. For the same molecule, in test [3] (setting [5]), the pIC50 was 6.59.
As to `Cc1ccc(NC(=O)N2NC(=O)[C@@H](c3ccccc3)[C@@H]2c2ccccc2)cc1` (relative stereo) [Example 25], the inhibition at 10 µM in test [2] came to 14%. In addition, the pIC50 in test [3] (setting [5]) was 6.68.
As to `O=C1NN(C(=S)Nc2ccc(C(F)(F)F)cc2)[C@H](c2ccccc2)[C@H]1c1ccccc1` (relative stereo) [Example 62], in test [2], the inhibition at 10 µM turned out to be 37%. Moreover, in test [3] (setting [5]), the pIC50 was 5.66.
With `O=C1NN(C(=O)Nc2ccc(Br)c(C(F)(F)F)c2)[C@H](c2ccccc2)[C@H]1c1ccccc1` (relative stereo) [Example 45], the figures for the negative logarithm of the IC50 (pIC50) in test [2] and in test [3] (setting [5]) were 6.80 and 7.66, respectively.
Consider `CC(NC(=O)N1NC(=O)[C@@H](c2ccccc2)[C@@H]1c1ccccc1)c1ccc(Br)cc1` (relative stereo) [Example 103], for which, in test [2], the inhibition at 10 µM came to 78%. In addition, the pIC50 in test [3] (setting [5]) was 6.06.
For `O=C1NN(C(=O)Nc2cc(C(F)(F)F)cc(C(F)(F)F)c2)[C@H](c2ccccc2)[C@H]1c1ccccc1` (relative stereo) [Example 58], the inhibition at 10 µM in test [2] was 85%. Besides, the inhibition at 1 µM in test [3] was 10%.
With `O=C(Nc1ccc(C(F)(F)F)cc1)N1N[C@@H](c2ccccc2)[C@H](c2ccccc2)C1=O` (relative stereo) [Example 83], the inhibition at 10 µM in test [2] amounted to 12%. Besides, the inhibition at 1 µM in test [3] was determined as 37%.
For the molecule `O=C1NN(C(=O)Cc2cccc(C(F)(F)F)c2)[C@H](c2ccccc2)[C@H]1c1ccccc1` (relative stereo) [Example 76], the inhibition at 10 µM was determined as 4% in test [2] and 55% in test [3].
In the case of `CCOc1ccc(NC(=O)N2NC(=O)[C@@H](c3ccccc3)[C@@H]2c2ccccc2)cc1` (relative stereo) [Example 34], the inhibition at 10 µM in test [2] turned out to be 12%. Also, in test [3] (setting [5]), the pIC50 was 5.82.
